Assays:
Experiment in all cases: Anti-proliferative assay (Oncodesign)
Format in all cases: cell-based
A-427 = details: Homo sapiens; A-427 (LUNG); read-out: IC50 (Concentration of test compound)
Method: (§1) The anti-proliferative activities of the parent compounds of the pro-drugs of the invention may be determined by measuring the ability of the compounds to inhibition of cell growth in a number of cell lines such as the human colon cancer cell line HCT116. Inhibition of cell growth is measured using the Alamar Blue assay (Nociari, M. M, Shalev, A., Benias, P., Russo, C. Journal of Immunological Methods 1998, 213, 157-167). The method is based on the ability of viable cells to reduce resazurin to its fluorescent product resorufin. For each proliferation assay cells are plated onto 96 well plates and allowed to recover for 16 hours prior to the addition of inhibitor compounds for a further 72 hours. At the end of the incubation period 10% (v/v) Alamar Blue is added and incubated for a further 6 hours prior to determination of fluorescent product at […]. In the case of the non-proliferating cell assay cells are maintained at confluence for 96 hour prior to the addition of inhibitor compounds for a further 72 hours. The number of viable cells is determined by Alamar Blue assay as before. Cell lines may be obtained from the ECACC (European Collection of cell Cultures).
(§2) The parent compound of the pro-drugs of Examples 1 to 25 i.e. (2,4-dihydroxy-5-isopropyl-phenyl)-[5-(4-methyl-piperazin-1-ylmethyl)-1,3-dihydro-isoindol-2-yl]-methanone, in the form of its L-lactate salt, was tested in anti-proliferative assays against one hundred cell lines by Oncodesign (Dijon, France). The IC50 values against each cell line are set out in the table below and the figures in the table refer to nanomolar concentrations. The compounds were tested up to a concentration of 10,000 nanomolar.

AGS = details: Homo sapiens; AGS (STOMACH); read-out: IC50 (Concentration of test compound)
Method: as §1, §2

BB74-MEL = BB74-MEL (SKIN); read-out: IC50 (Concentration of test compound)
Method: as §1, §2

BV-173 = details: Homo sapiens; BV-173 (BLOOD); read-out: IC50 (Concentration of test compound)
Method: as §1, §2

CGL-3 = CGL-3 (BRAIN); read-out: IC50 (Concentration of test compound)
Method: as §1, §2

CMEL-5 = CMEL-5 (SKIN); read-out: IC50 (Concentration of test compound)
Method: as §1, §2

Capan-2 = details: Homo sapiens; Capan-2 (PANCREAS); read-out: IC50 (Concentration of test compound)
Method: as §1, §2

Daudi = details: Homo sapiens; Daudi (BLOOD); read-out: IC50 (Concentration of test compound)
Method: as §1, §2

FaDu = details: Homo sapiens; FaDu (HEAD AND NECK); read-out: IC50 (Concentration of test compound)
Method: as §1, §2

HCT 116 = details: Homo sapiens; HCT 116 (COLON); read-out: IC50 (Concentration of test compound)
Method: as §1, §2

IGROV-1 = details: Homo sapiens; IGROV-1 (OVARY); read-out: IC50 (Concentration of test compound)
Method: as §1, §2

K-562/Gleevec = details: Homo sapiens, K562; K-562/Gleevec (BLOOD); read-out: IC50 (Concentration of test compound)
Method: as §1, §2

KCL-22 = details: Homo sapiens; KCL-22 (BLOOD); read-out: IC50 (Concentration of test compound)
Method: as §1, §2

KG-1 = details: Homo sapiens; KG-1 (BLOOD); read-out: IC50 (Concentration of test compound)
Method: as §1, §2

LB1047-RCC = LB1047-RCC (KIDNEY); read-out: IC50 (Concentration of test compound)
Method: as §1, §2

LB11-SCLC/OC1 = LB11-SCLC/OC1 (LUNG); read-out: IC50 (Concentration of test compound)
Method: as §1, §2

LB1319-MEL = LB1319-MEL (SKIN); read-out: IC50 (Concentration of test compound)
Method: as §1, §2

LB1617-HNSCC = LB1617-HNSCC (HEAD AND NECK); read-out: IC50 (Concentration of test compound)
Method: as §1, §2

LB796-BLC = LB796-BLC (URINARY BLADDER); read-out: IC50 (Concentration of test compound)
Method: as §1, §2

MDA-MB-435 = details: Homo sapiens; MDA-MB-435 (BREAST); read-out: IC50 (Concentration of test compound)
Method: as §1, §2

NAMALWA = NAMALWA (BLOOD); read-out: IC50 (Concentration of test compound)
Method: as §1, §2

NCI-H460 = details: Homo sapiens; NCI-H460 (LUNG); read-out: IC50 (Concentration of test compound)
Method: as §1, §2

OCI-AML2 = details: Homo sapiens; OCI-AML2 (BLOOD); read-out: IC50 (Concentration of test compound)
Method: as §1, §2

PANC-1 = details: Homo sapiens; PANC-1 (PANCREAS); read-out: IC50 (Concentration of test compound)
Method: as §1, §2

RPMI 8226 = details: Homo sapiens; RPMI 8226 (BLOOD); read-out: IC50 (Concentration of test compound)
Method: as §1, §2

U-937 = details: Homo sapiens; U-937 (BLOOD); read-out: IC50 (Concentration of test compound)
Method: as §1, §2

IC50 (AGS): 66 nM | IC50 (Daudi): 136 nM | IC50 (HCT 116): 38 nM | IC50 (K-562/Gleevec): 175 nM | IC50 (MDA-MB-435): 122 nM | IC50 (NCI-H460): 118 nM | IC50 (OCI-AML2): > 10000 nM | IC50 (PANC-1): 327 nM | IC50 (U-937): 104 nM
Compound: CC(C)c1cc(C(=O)N2Cc3ccc(CN4CCN(C)CC4)cc3C2)c(O)cc1O [(2,4-dihydroxy-5-isopropyl-phenyl)-[5-(4-methyl-piperazin-1-ylmethyl)-1,3-dihydro-isoindol-2-yl]-methanone]
IC50 (A-427): 130 nM | IC50 (BB74-MEL): 162 nM | IC50 (BV-173): 73 nM | IC50 (CGL-3): 75 nM | IC50 (CMEL-5): 130 nM | IC50 (Capan-2): 144 nM | IC50 (FaDu): 29 nM | IC50 (IGROV-1): 109 nM | IC50 (KCL-22): 24 nM | IC50 (KG-1): > 10000 nM | IC50 (LB1047-RCC): 58 nM | IC50 (LB11-SCLC/OC1): 17 nM | IC50 (LB1319-MEL): 35 nM | IC50 (LB1617-HNSCC): 139 nM | IC50 (LB796-BLC): 83 nM | IC50 (NAMALWA): 93 nM | IC50 (RPMI 8226): 10 nM

From patent publication US8383619B2, “Pharmaceutical compounds” (Astex Therapeutics Limited, priority 2008, dated 2013)
